According to patent publication US9702824B2, “pH sensors” (PROMEGA CORPORATION, priority 2012, dated 2017):
Where two headings read alike, the source gives them in different places. One block for each molecule: values may come before it.

Assays:
[1] = system: U2-OS cells stably expressing HaloTag-NLS; assay: pH sensor permeability, pulse and chase with HaloTag Oregon Green (Example 12); conditions: 2 uM pulse for 10 minutes
[2] = system: U2-OS cells stably expressing HaloTag-NLS
[3] = Ex/Em printed with the synthesis procedures; assay type: physicochemical
wild-type U2-OS cells = assay: Toxicity of HaloTag pH sensors, CELLTITER Glo Cell Viability Assay (Example 9); assay type: cell-based; conditions: 0-10 uM, overnight
Method: U2-OS cells were plated at 10,000 cells/well into wells of 96-well plates and incubated overnight. The next day, 0-10 uM (serially diluted 1:2) PBI-4959, PBI-5004 or PBI-4479 was added to the cells and again incubated overnight. After incubation, the media containing the HaloTag® pH sensors was removed, and 100 ul of fresh media (McCoy's 5A+10% FBS) was added. Cell viability was determined using the CELLTITER Glo Cell Viability Assay according to the manufacturer's protocol (Promega Corporation). Luminescence was read on a GloMAX®-Multi luminometer.

U2-OS HaloTag-EDG1 cells [4] = target: T1, U2-OS HaloTag-EDG1 cells (Homo sapiens, UniProt P21453); assay: Detection of internalization using a permeable pH sensor (Example 13); assay type: cell-based; conditions: 500 nM sensor added after stimulation with or without 1 uM S1P
T1 construct: host or cells: U2-OS HaloTag-EDG1 cells
T1 sequence (P21453 with tags, fused parts or gaps): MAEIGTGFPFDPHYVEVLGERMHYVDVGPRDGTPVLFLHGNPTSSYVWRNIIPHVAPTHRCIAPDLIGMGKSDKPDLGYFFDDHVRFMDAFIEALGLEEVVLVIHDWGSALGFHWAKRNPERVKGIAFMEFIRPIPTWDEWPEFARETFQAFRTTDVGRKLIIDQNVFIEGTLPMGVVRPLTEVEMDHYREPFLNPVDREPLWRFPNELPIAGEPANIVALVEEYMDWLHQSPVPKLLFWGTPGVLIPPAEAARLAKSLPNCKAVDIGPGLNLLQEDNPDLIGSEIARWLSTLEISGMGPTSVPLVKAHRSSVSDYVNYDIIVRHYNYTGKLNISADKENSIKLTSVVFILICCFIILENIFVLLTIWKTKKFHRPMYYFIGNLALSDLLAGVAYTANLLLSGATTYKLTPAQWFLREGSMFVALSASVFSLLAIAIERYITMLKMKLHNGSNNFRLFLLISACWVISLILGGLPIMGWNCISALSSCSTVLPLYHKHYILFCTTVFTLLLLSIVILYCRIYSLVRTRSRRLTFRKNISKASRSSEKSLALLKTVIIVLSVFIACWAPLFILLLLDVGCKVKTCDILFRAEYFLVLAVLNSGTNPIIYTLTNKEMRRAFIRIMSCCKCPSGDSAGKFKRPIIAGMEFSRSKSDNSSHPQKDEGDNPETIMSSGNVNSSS
Method: To evaluate internalization using a permeable pH Sensor, U2-OS HaloTag®-EDG1 cells (Promega Corporation) were exposed to PBI-5004 and internalization of HaloTag®-EDG1 assessed. […] The next day, the media was replaced with McCoy's 5A+0.5% cFBS and incubated overnight at 37° C./5% CO2. After incubation, 1 uM S1P (Sphingosine-1-Phosphate) was added, and the cells incubated for 30 minutes at 37° C./5% CO2.

[5] = system: HaloTag-EDG1 fusion protein in U2-OS cells; assay: Blocking internalization by DYNASORE, detected with pH sensor; assay type: cell-based; conditions: 80 uM, 1 uM S1P for 60 minutes, detected with 1 uM PBI-4479
Method: In addition to dynamin, DYNASORE, a reversible, non-competitive inhibitor of dynamin, can also be used to block internalization/endocytosis with the blocking detected and monitored using the pH sensor of the present invention. […] After the overnight incubation, the cells were simultaneously labeled for 30 minutes with 1 uM HaloTag pH sensor (PBI-4479) and 80 uM Dynasore (Sigma). Control cells were labeled with the 1 uM HaloTag pH sensor, but were not treated with Dynasore. The cells were then stimulated with 1 uM S1P for 60 minutes and imaged as previously described.

[6] = system: HaloTag-EDG1 fusion protein in U2-OS cells; assay: Restoration of internalization by DYNASORE washout; assay type: cell-based; conditions: 80 uM removed by washing, then 1 uM S1P for 60 minutes
Method: In such experiments, blocked internalization of HaloTag-EDG1 was restored. […] After the overnight incubation, the cells were simultaneously labeled with a HaloTag pH sensor (PBI-4479) and 80 uM DYNASORE (Sigma). Control cells were labeled with the HaloTag pH sensor, but were not treated with DYNASORE. The cells were then stimulated with 1 uM S1P and imaged (T=0 in FIG. 17). At this point, DYNASORE prevents the dynamin-dependent internalization/endocytosis of HaloTag-EDG1. DYNASORE was then removed by washing three times for 5 minutes with McCoy's 5A+10% FBS, and the media replaced with complete media containing 1 uM S1P. The cells were incubated for 60 minutes and imaged as previously described. Internalization of HaloTag-EDG1 was restored as detected and monitored by the pH sensor (SEE FIG. 19).

[7] = Fluorescence excitation and emission spectra of pH sensor agents; assay type: physicochemical
Method: (§1) Experiments were conducted during development of embodiments of the present invention to determine the fluorescence characteristics of exemplary pH sensor agents PBI-4453 and PBI-4479 (SEE FIG. 1). Fluorescence excitation and emission intensities were measured at a range of wavelengths (SEE FIG. 2). […] Fluorescence detection was performed at a range of pH values (SEE FIG. 3).

[8] = pH dependence of fluorescence emission; assay type: physicochemical
Method: as §1

U2OS cells = assay: Toxicity, CELLTITER-GLO Luminescent Cell Viability Assay (Example 3); assay type: cell-based; conditions: 0 nM to 20 uM, 24 hour
Method: The toxicity of dyes PBI-4479 and PBI-4453 was tested in U2OS cells. The cells were plated at 20,000 cells/well in McCoy's 5A media+10% FBS into wells of a 96-well plate. The compounds were then serially diluted 2-fold in McCoy's 5A+10% FBS to a 10× working solution. 10 ul of the working solution was added to the cells to a final concentration of 0 nM to 20 uM. The treated cells were then incubated overnight at 37° C., 5% CO2. Toxicity was tested using Promega's CELLTITER-GLO Luminescent Cell Viability Assay according to the manufacturer's protocol. No toxicity was seen across varying concentrations of the compounds over the 24 hour period (SEE FIG. 9).

U2-OS HaloTag-EDG1 cells [9] = target: T1, U2-OS HaloTag-EDG1 cells; assay: Detection of internalization using an impermeable pH sensor (Example 13); assay type: cell-based; conditions: 500 nM sensor
Method: The next day, the media was replaced with McCoy's 5A+0.5% cFBS and incubated overnight at 37° C./5% CO2. […] 1 uM S1P (Sphingosine-1-Phosphate) or carrier (DMSO) was then added to the cells, and images were acquired sequentially on Olympus FV500 at 37° C./5% CO2.

Molecule: O=C(NCCOCCOCCCCCCCl)c1cccc(CNC(=O)c2ccc(C(=O)[O-])c(-c3c4ccc(=[N+]5CCN(CCCCS(=O)(=O)O)CC5)cc-4oc4cc(N5CCN(CCCCS(=O)(=O)O)CC5)ccc34)c2)c1 [PBI-4958]
cell permeability [1]: non-permeability

Molecule: CN1CCN(c2ccc3c(c2)Oc2c4c5c(cc2=C3c2cc(C(=O)O)ccc2C(=O)[O-])CCC[N+]=5CCC4)CC1 [Hexahydroquinoiizino-(4-methylpiperazin-1-yl}-rhodamine-6′-carboxyic acid]
Em [3]: 586 nm
Ex [3]: 559 nm

Molecule: O=C(N/N=C/c1ccc(O)c(O)c1)c1cc2ccccc2cc1O [DYNASORE]
effect on HaloTag-EDG1 internalization [5]: prevented dynamin-dependent internalization/endocytosis
HaloTag-EDG1 internalization after washout [6]: restored

Molecule: CN1CCN(c2ccc3c(-c4cc(C(=O)NCCOCCOCCOCCOCCOCCOCCCCCCCl)ccc4C(=O)[O-])c4ccc(=[N+]5CCN(C)CC5)cc-4oc3c2)CC1 [PBI-4453, N-(24-chloro-3,6,9,12,15,18-hexaoxatetracosyl)-3′,6′-bis(4-methylpiperazin-1-yl)-rhodamine-(5,6)carboxamide]
emission maximum [7]: 571 nm
excitation maximum [7]: 541 nm
pH at or below which maximal fluorescence intensity is exhibited [8]: ≤ 4.15
percent of maximal fluorescence ([8]; at pH 7.53 or higher): ≤ 5%
pKa ([8]; from pH dependence of fluorescence): ~5.84
toxicity (cell viability) (U2OS cells): No toxicity

Continued, in another order:

cell permeability [2]: non-permeability
Molecule: 4-((1-(4-((2-(2-((6-chlorohexyl)oxy)ethoxy)ethyl)carbamoyl)phenyl)-3-oxo-6,9,12,15-tetraoxa-2-azaheptadecan-17-yl)) 3′,6′-bis(4-(4-sulfobutyl)piperazin-1-yl) rhodamine(5′,6′)carboxamide [PBI-4995]

cell permeability [1]: non-permeability
Molecule: O=C(CCOCCOCCOCCOCCNC(=O)c1ccc(C(=O)[O-])c(-c2c3ccc(=[N+]4CCN(CCCCS(=O)(=O)O)CC4)cc-3oc3cc(N4CCN(CCCCS(=O)(=O)O)CC4)ccc23)c1)NCc1cccc(C(=O)NCCOCCOCCCCCCCl)c1 [PBI-4994]

Em [3]: 560 nm
Ex [3]: 532 nm
Molecule: O=C(NCC1CCC(C(=O)NCCOCCOCCCCCCCl)CC1)c1ccc(C(=O)[O-])c(-c2c3ccc(=[N+]4CCN(CCCCS(=O)(=O)O)CC4)cc-3oc3cc(N4CCN(CCCCS(=O)(=O)O)CC4)ccc23)c1 (centres unmarked) [PBI-5004, 4-(((4-((2-(2-((6-chlorohexyl)oxy)ethoxy)ethyl)carbamoyl)cyclohexyl)methyl)) 3′,6′-bis(4-(4-sulfobutyl)piperazin-1-yl) rhodamine(5′,6′) carboxamide]
toxicity (cell viability) (wild-type U2-OS cells): non-toxicity
detection of HaloTag-EDG1 internalization (U2-OS HaloTag-EDG1 cells [4]): ability to detect internalization of HaloTag-EDG1

Em [3]: 564 nm
Ex [3]: 532 nm
cell permeability [1]: non-permeability
Molecule: O=C(NCCOCCOCCCCCCCl)c1ccc(CNC(=O)c2ccc(C(=O)[O-])c(-c3c4ccc(=[N+]5CCN(CCCCS(=O)(=O)O)CC5)cc-4oc4cc(N5CCN(CCCCS(=O)(=O)O)CC5)ccc34)c2)cc1 [PBI-4959, 4-((4-((2-(2-((6-chlorohexyl)oxy)ethoxy)ethyl)carbamoyl)benzyl))-3′,6′-bis(4-(4-sulfobutyl)piperazin-1-yl) rhodamine(5′,6′) carboxamide]
toxicity (cell viability) (wild-type U2-OS cells): non-toxicity
detection of HaloTag-EDG1 internalization (U2-OS HaloTag-EDG1 cells [9]; with 1 uM S1P): ability to detect internalization of HaloTag-EDG1
detection of background HaloTag-EDG1 internalization (U2-OS HaloTag-EDG1 cells [9]; without 1 uM S1P): ability to detect background internalization of HaloTag-EDG1
